Measured values reported in patent publication US4424342A, “Anthracycline antibiotic compounds” (priority 1981, dated 1984).
In brackets after ≈: the same amount, converted by molar mass. Entries after “also recorded” stand apart in the source; their conditions may differ. Like-named read-outs stand apart in the source and are kept apart here.

Experiments:
[1] = test system: L1210 leukemia cells, RNA synthesis; experiment: RNA synthesis inhibition in L1210 leukemia culture cells (14C-uridine incorporation); assay type: cell-based, mouse; settings: for IC50: Mus musculus
Method: (§1) The 50% inhibitory concentration of trisarubicinol on L1210 leukemia cells was calculated by culturing 5×10^4 cells/ml at 37° C. in 5% CO2 -air in 20% calf serum-supplemented RPMI 1640 medium (Roswell Park Memorial Institute 1640 medium) containing none (control), 0.01 and 0.05 μg/ml of trisarubicinol. In addition. the inhibitory effect of the new anthracycline compound on nucleic acid synthesis was examined as follows: after 5×10^5 cells/ml of L1210 leukemia cells were preincubated in 5% CO2 -air at 37° C. for 1-2 hours in RPMI medium containing 10% calf serum, varied concentrations of trisarubicinol were added and incubated for 15 minutes under the same conditions. Then 0.05 μCi/ml each of ^14 C-uridine or ^14 C-thymidine was added to the cell suspensions and the mixtures were incubated at 37° C. for a further 60 minutes. At the end of incubation, cold 10% trichloroacetic acid was added to stop the incorporation of the radio-labelled compound. The acid-insoluble fractions were collected by centrifugation; rinsed three times with 5% trichloroacetic acid; and dissolved in formic acid for radiometry. The 50% inhibitory concentration of the new anthracycline compound was calculated from the radiometric data of the acid-insoluble fractions of the control and test reaction mixtures.

[2] = test system: L1210 leukemia cells; experiment: Growth inhibition of L1210 leukemia culture cells in vitro; assay type: cell-based, mouse; settings: for IC50: Mus musculus
Method: as §1

[3] = test system: L1210 leukemia cells, DNA synthesis; experiment: DNA synthesis inhibition in L1210 leukemia culture cells (14C-thymidine incorporation); assay type: cell-based; settings: Mus musculus
Method: as §1

[4] = test system: various experimental tumors in animals; experiment: Antitumor activity on various experimental tumors in animals; settings: in vivo
[5] = Acute toxicity; assay type: in vivo
[6] = test system: L1210 mouse leukemia; experiment: In vivo activity on L1210 mouse leukemia, prolongation of survival time; set-up: species or system mouse (CDF1 mice); settings: for prolongation of survival time (T/C): i.p. every day for 10 days, CDF1 mice
Method: The therapeutic effect of trisarubicinol was examined by calculating the prolongation of the survival time of treated animals relative to untreated ones (receiving physiological saline). In practice, 1×10^5 mouse leukemia cells each were intraperitoneally transplanted into CDF1 mice and varied doses of trisarubicinol were intraperitoneally injected every day for 10 days from 24 hours after cell transplantation.

| SMILES | IC50 ([1]; L1210 culture cells, 15 min with compound, then 60 min with 14C-uridine, read-out: 50% inhibitory concentration (IC50), RNA synthesis inhibition) [µg/mL] | IC50 ([2]; L1210 culture cells, 5×10^4 cells/ml, 37° C., 20% calf serum-supplemented RPMI 1640, read-out: 50% inhibitory concentration (IC50), cell growth inhibition) [µg/mL] | IC50 ([3]; L1210 culture cells, 15 min with compound, then 60 min with 14C-thymidine, read-out: 50% inhibitory concentration (IC50), DNA synthesis inhibition) [µg/mL] | IC50 ([1]; L1210, read-out: 50% inhibitory concentration (IC50), RNA synthesis inhibition) [µg/mL] | RNA synthesis inhibition compared with carminomycin I (in words) ([1]; at very low concentrations, versus carminomycin I) | growth inhibition of L1210 cells (in words) ([2]; L1210 cultured cells / at low doses) | IC50 ([2]; L1210, read-out: 50% inhibitory concentration (IC50), cell growth inhibition) [µg/mL] | antitumor activity compared with carminomycin I (in words) ([2]; versus carminomycin I, L1210) | antitumor activity on various experimental tumors in animals (in words) [4] | IC50 ([3]; L1210, read-out: 50% inhibitory concentration (IC50), DNA synthesis inhibition) [µg/mL] | LD50 ([5]; in vivo, ip) [mg/kg] | toxicity (in words) ([5]; relative to carminomycin I, general statement) | effect on survival time of leukemia cells-holding mice / therapeutic effect (in words) ([6]; L1210 mouse leukemia) | prolongation of survival time (T/C) ([6]; dose 0.63 (head prints "%")) [%] | prolongation of survival time (T/C) ([6]; dose 1.25 (head prints "%")) [%] | prolongation of survival time (T/C) ([6]; dose 2.5 (head prints "%")) [%] | prolongation of survival time (T/C) ([6]; dose 5.0 (head prints "%")) [%] | prolongation of survival time (T/C) ([6]; dose 7.5 (head prints "%")) [%] | prolongation of survival time (T/C) ([6]; dose 10 (head prints "%")) [%] |
| --- | --- | --- | --- | --- | --- | --- | --- | --- | --- | --- | --- | --- | --- | --- | --- | --- | --- | --- | --- |
| CC(=O)[C@]1(O)Cc2c(O)c3c(c(O)c2[C@@H](O[C@H]2C[C@H](N)[C@H](O)[C@H](C)O2)C1)C(=O)c1c(O)cccc1C3=O [carminomycin I, reference compound] | 0.29 (≈ 0.565 µM) | 0.01 (≈ 0.0195 µM) | 0.2 (≈ 0.389 µM) |  |  |  |  |  |  |  |  |  |  |  |  |  |  |  |  |
| CC(O)C1(O)Cc2c(O)c3c(c(O)c2C(O[C@H]2C[C@H](N(C)C)[C@H](O[C@H]4C[C@H](O)[C@H](O[C@H]5CCC(=O)[C@H](C)O5)[C@H](C)O4)[C@H](C)O2)C1)C(=O)c1c(O)cccc1C3=O (stereo partly shown) [trisarubicinol] |  |  |  | 0.06 (≈ 0.0764 µM) | better inhibition of RNA synthesis at very low concentrations | markedly inhibits the growth and nucleic acid synthesis in cultured cells of mouse leukemia (L1210); also recorded: significantly inhibits the growth of L1210 mouse leukemia cells at low doses | 0.01 (≈ 0.0127 µM) | same or better antitumor activity | excellent antitumor activity on various experimental tumors in animals | 0.38 (≈ 0.484 µM) | 40 to 50 | less toxic than carminomycin I; also recorded: unique low toxicity | marked prolonging effect on the survival time of leukemia cells-holding mice; also recorded: strong therapeutic effect on mouse leukemia (L1210) | 122 | 124 | 159 | 216 | 243 | 131 |
